Target: HEK293 cells with stable expression of the GRIN1 gene and tetracycline-inducible expression of the GRIN2B gene (NMDA receptor, NR2B) (Homo sapiens, UniProt Q13224)
Experiment: Fluo-8 Ca2+ flux assay: reversal of Ro 25-6981-mediated suppression of the Ca2+ response to co-agonist (glutamate/glycine); further: test concentration or dose not given here
Assay type: cell-based
Conditions: reversal of the Ro 25-6981 suppression of the Ca2+ response to co-agonist (glutamate/glycine)

HEK293 cells with stable expression of the GRIN1 gene and tetracycline-inducible expression of the GRIN2B gene (NMDA receptor, NR2B), sequence (Q13224 27-1484, other chains not shown): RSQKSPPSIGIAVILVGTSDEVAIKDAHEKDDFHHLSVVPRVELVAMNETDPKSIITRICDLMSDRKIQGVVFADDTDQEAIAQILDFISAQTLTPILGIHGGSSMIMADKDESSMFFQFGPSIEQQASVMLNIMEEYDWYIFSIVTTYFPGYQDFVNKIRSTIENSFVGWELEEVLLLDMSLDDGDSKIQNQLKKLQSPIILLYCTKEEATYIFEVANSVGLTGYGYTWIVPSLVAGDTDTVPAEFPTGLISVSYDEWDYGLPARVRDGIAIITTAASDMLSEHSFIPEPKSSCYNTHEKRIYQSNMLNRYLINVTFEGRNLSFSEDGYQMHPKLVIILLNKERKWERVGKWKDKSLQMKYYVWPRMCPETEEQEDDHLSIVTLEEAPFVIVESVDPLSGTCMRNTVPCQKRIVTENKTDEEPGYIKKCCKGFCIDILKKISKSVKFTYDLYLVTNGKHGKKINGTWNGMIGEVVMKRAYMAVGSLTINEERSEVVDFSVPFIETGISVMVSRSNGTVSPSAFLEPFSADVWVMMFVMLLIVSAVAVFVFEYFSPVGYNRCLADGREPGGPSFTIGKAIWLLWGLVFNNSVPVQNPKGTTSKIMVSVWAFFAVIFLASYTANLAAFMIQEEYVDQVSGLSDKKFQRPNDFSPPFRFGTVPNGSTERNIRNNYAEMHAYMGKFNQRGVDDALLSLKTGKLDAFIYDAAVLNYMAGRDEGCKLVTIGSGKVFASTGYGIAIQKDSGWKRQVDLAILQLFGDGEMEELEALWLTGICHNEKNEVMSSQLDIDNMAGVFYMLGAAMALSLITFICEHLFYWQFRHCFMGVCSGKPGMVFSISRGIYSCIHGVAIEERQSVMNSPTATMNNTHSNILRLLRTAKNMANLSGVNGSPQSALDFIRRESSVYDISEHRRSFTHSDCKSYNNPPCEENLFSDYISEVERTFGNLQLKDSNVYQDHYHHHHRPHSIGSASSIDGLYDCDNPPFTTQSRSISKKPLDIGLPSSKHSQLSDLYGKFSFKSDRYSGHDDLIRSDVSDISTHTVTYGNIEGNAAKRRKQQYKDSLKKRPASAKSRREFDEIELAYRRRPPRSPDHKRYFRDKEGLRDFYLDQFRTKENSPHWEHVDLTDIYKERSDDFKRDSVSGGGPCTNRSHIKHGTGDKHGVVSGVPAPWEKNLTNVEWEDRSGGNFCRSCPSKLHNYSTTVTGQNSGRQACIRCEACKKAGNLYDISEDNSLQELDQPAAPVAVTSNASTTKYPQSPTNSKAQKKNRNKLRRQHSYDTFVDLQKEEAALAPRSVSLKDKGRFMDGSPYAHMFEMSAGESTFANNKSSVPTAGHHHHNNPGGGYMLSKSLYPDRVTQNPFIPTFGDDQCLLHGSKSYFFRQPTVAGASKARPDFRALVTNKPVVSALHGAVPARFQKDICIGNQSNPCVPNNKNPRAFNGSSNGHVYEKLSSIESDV

| SMILES | Response Recovered (%) |
| --- | --- |
| C[Si](C)(C)CCOCn1cc(-c2ccc(F)c(Cl)c2)c2c(=O)n(CC(=O)N3CC(F)(F)C3)ccc21 [Example 207, 3-(3-chloro-4-fluorophenyl)-5-(2-(3,3-difluoroazetidin-1-yl)-2-oxoethyl)-1-((2-(trimethylsilyl)ethoxy)methyl)-1H-pyrrolo[3,2-c]pyndin-4(5H)-one] | 69 |
| O=C(Cn1ccc2[nH]cc(-c3ccc(F)c(Cl)c3)c2c1=O)N1CCCC1 [Example 208, 3-(3-chloro-4-fluorophenyl)-5-(2-oxo-2-(pyrrolidin-1-yl)ethyl)-1H-pyrrolo[3,2-c]pyridin-4(5H)-one] | 60 |
| O=C(Cn1ccc2[nH]cc(-c3ccc(F)c(Cl)c3)c2c1=O)N1CCC(F)C1 (centres unmarked) [Example 209, 3-(3-chloro-4-fluorophenyl)-5-(2-(3-fluoropyrrolidin-1-yl)-2-oxoethyl)-1H-pyrrolo[3,2-c]pyridin-4(5H)-one] | 53 |
| O=C(Cn1ccc2[nH]cc(-c3cnc(Cl)c(Cl)c3)c2c1=O)N1CC(F)C(F)C1 (centres unmarked) [Example 210, 3-(5,6-dichloropyridin-3-yl)-5-(2-(3,4-difluoropyrrolidin-1-yl)-2-oxoethyl)-1H-pyrrolo[3,2-c]pyridin-4(5H)-one] | 26 |
| O=C(Cn1ccc2[nH]cc(-c3ccc(Cl)c(F)c3)c2c1=O)N1CCCC1 [Example 211, 3-(4-chloro-3-fluorophenyl)-5-(2-oxo-2-(pyrrolidin-1-yl)ethyl)-1H-pyrrolo[3,2-c]pyridin-4(5H)-one] | 55 |
| O=C(Cn1ccc2[nH]cc(-c3ccc(Cl)c(C(F)(F)F)c3)c2c1=O)N1CC(F)(F)C1 [Example 212, 3-(4-chloro-3-(trifluoromethyl)phenyl)-5-(2-(3,3-difluoroazetidin-1-yl)-2-oxoethyl)-1H-pyrrolo[3,2-c]pyridin-4(5H)-one] | 107 |
| O=C(Cn1ccc2[nH]cc(-c3ccc(Cl)c(F)c3)c2c1=O)N1CC(F)(F)C1 [Example 213, 3-(4-chloro-3-fluorophenyl)-5-(2-(3,3-difluoroazetidin-1-yl)-2-oxoethyl)-1H-pyrrolo[3,2-c]pyridin-4(5H)-one] | 109 |
| O=C(Cn1ccc2[nH]cc(-c3ccc(Cl)c(Cl)c3)c2c1=O)N1CCC(F)C1 (centres unmarked) [Example 214, 3-(3,4-dichlorophenyl)-5-(2-(3-fluoropyrrolidin-1-yl)-2-oxoethyl)-1H-pyrrolo[3,2-c]pyridin-4(5H)-one] | 84 |
| O=C(Cn1ccc2[nH]cc(-c3ccc(F)c(C(F)(F)F)c3)c2c1=O)N1CCC(F)C1 (centres unmarked) [Example 215, 3-(4-fluoro-3-(trifluoromethyl)phenyl)-5-(2-(3-fluoropyrrolidin-1-yl)-2-oxoethyl)-1H-pyrrolo[3,2-c]pyridin-4(5H)-one] | 89 |
| O=C(Cn1ccc2[nH]cc(-c3ccc(F)c(C(F)(F)F)c3)c2c1=O)N1CC(F)(F)C1 [Example 216, 5-(2-(3,3-difluoroazetidin-1-yl)-2-oxoethyl)-3-(4-fluoro-3-(trifluoromethyl)phenyl)-1H-pyrrolo[3,2-c]pyridin-4(5H)-one] | 101 |
| O=C(Cn1ccc2[nH]cc(-c3ccc(Cl)c(Cl)c3)c2c1=O)N1CCCC1 [Example 217, 3-(3,4-dichlorophenyl)-5-(2-oxo-2-(pyrrolidin-1-yl)ethyl)-1H-pyrrolo[3,2-c]pyridin-4(5H)-one] | 70 |
| O=C(Cn1ccc2[nH]cc(-c3ccc(F)c(Cl)c3)c2c1=O)N1CC(F)(F)C1 [Example 218, 3-(3-chloro-4-fluorophenyl)-5-(2-(3,3-difluoroazetidin-1-yl)-2-oxoethyl)-1H-pyrrolo[3,2-c]pyridin-4(5H)-one] | 71 |
| O=C(Cn1ccc2[nH]cc(-c3ccc(F)c(C(F)(F)F)c3)c2c1=O)N1CCCC1 [Example 219, 3-(4-fluoro-3-(trifluoromethyl)phenyl)-5-(2-oxo-2-(pyrrolidin-1-yl)ethyl)-1H-pyrrolo[3,2-c]pyridin-4(5H)-one] | 91 |
| O=C(Cn1ccc2[nH]cc(-c3ccc(F)c(C(F)(F)F)c3)c2c1=O)N1CC(F)C(F)C1 (centres unmarked) [Example 220, 5-(2-(3,4-difluoropyrrolidin-1-yl)-2-oxoethyl)-3-(4-fluoro-3-(trifluoromethyl)phenyl)-1H-pyrrolo[3,2-c]pyridin-4(5H)-one] | 120 |
| O=C(Cn1ccc2[nH]cc(-c3cnc(Cl)c(C(F)(F)F)c3)c2c1=O)N1CC(F)C(F)C1 (centres unmarked) [Example 221, 3-(6-chloro-5-(trifluoromethyl)pyridin-3-yl)-5-(2-(3,4-difluoropyrrolidin-1-yl)-2-oxoethyl)-1H-pyrrolo[3,2-c]pyridin-4(5H)-one] | 43 |
| CC1(F)CN(C(=O)Cn2ccc3[nH]cc(-c4ccc(F)c(C(F)(F)F)c4)c3c2=O)C1 [Example 222, 3-(4-fluoro-3-(trifluoromethyl)phenyl)-5-(2-(3-fluoro-3-methylazetidin-1-yl)-2-oxoethyl)-1H-pyrrolo[3,2-c]pyridin-4(5H)-one] | 86 |

| SMILES | Response Recovered (%) |
| --- | --- |
| O=C(Cn1ccc2c(c(-c3ccc(Cl)c(C(F)(F)F)c3)cn2-c2ccccn2)c1=O)N1CCC(F)C1 (centres unmarked) [Example 224, 3-(4-chloro-3-(trifluoromethyl)phenyl)-5-(2-(3-fluoropyrrolidin-1-yl)-2-oxoethyl)-1-(pyridin-2-yl)-1H-pyrrolo[3,2-c]pyridin-4(5H)-one] | 109 |
| O=C(Cn1ccc2c(c(-c3ccc(F)c(C(F)(F)F)c3)cn2-c2ccccn2)c1=O)N1CCC(F)C1 (centres unmarked) [Example 225, 3-(4-fluoro-3-(trifluoromethyl)phenyl)-5-(2-(3-fluoropyrrolidin-1-yl)-2-oxoethyl)-1-(pyridin-2-yl)-1H-pyrrolo[3,2-c]pyridin-4(5H)-one] | 83 |
| O=C(Cn1ccc2c(c(-c3ccc(F)c(Cl)c3)cn2-c2ccccn2)c1=O)N1CCC(F)C1 (centres unmarked) [Example 228, 3-(4-chloro-4-fluorophenyl)-5-(2-(3-fluoropyrrolidin-1-yl)-2-oxoethyl)-1-(pyridin-2-yl)-1H-pyrrolo[3,2-c]pyridin-4(5H)-one] | 39 |
| O=C(Cn1ccc2c(c(-c3ccc(Cl)c(Cl)c3)cn2-c2ccccn2)c1=O)N1CCC(F)C1 (centres unmarked) [Example 229, 3-(3,4-dichlorophenyl)-5-(2-(3-fluoropyrrolidin-1-yl)-2-oxoethyl)-1-(pyridin-2-yl)-1H-pyrrolo[3,2-c]pyridin-4(5H)-one] | 78 |
| O=C(Cn1ccc2c(c(-c3ccc(F)c(C(F)(F)F)c3)cn2-c2ccccc2)c1=O)N1CCC(F)C1 (centres unmarked) [Example 230, 3-(4-fluoro-3-(trifluoromethyl)phenyl)-5-(2-(3-fluoropyrrolidin-1-yl)-2-oxoethyl)-1-phenyl-1H-pyrrolo[3,2-c]pyridin-4(5H)-one] | 109 |
| O=C(Cn1ccc2c(c(-c3ccc(F)c(C(F)(F)F)c3)cn2C2CC2)c1=O)N1CCC(F)C1 (centres unmarked) [Example 231, 1-cyclopropyl-3-(4-fluoro-3-(trifluoromethyl)phenyl)-5-(2-(3-fluoropyrrolidin-1-yl)-2-oxoethyl)-1H-pyrrolo[3,2-c]pyridin-4(5H)-one] | 90 |
| O=C(Cn1ccc2c(c(-c3ccc(F)c(Cl)c3)cn2C2CC2)c1=O)N1CCC(F)C1 (centres unmarked) [Example 232, 3-(3-chloro-4-fluorophenyl)-1-cyclopropyl-5-(2-(3-fluoropyrrolidin-1-yl)-2-oxoethyl)-1H-pyrrolo[3,2-c]pyridin-4(5H)-one] | 66 |
| O=C(Cn1ccc2c(c(-c3ccc(Cl)c(Cl)c3)cn2C2CC2)c1=O)N1CCC(F)C1 (centres unmarked) [Example 233, 1-cyclopropyl-3-(3,4-dichlorophenyl)-5-(2-(3-fluoropyrrolidin-1-yl)-2-oxoethyl)-1H-pyrrolo[3,2-c]pyridin-4(5H)-one] | 85 |
| Cn1cc(-n2cc(-c3ccc(F)c(C(F)(F)F)c3)c3c(=O)n(CC(=O)N4CCC(F)C4)ccc32)cn1 (centres unmarked) [Example 234] | 80 |
| Cn1cc(-n2cc(-c3ccc(F)c(Cl)c3)c3c(=O)n(CC(=O)N4CCC(F)C4)ccc32)cn1 (centres unmarked) [Example 235, 3-(3-chloro-4-fluorophenyl)-5-(2-(3-fluoropyrrolidin-1-yl)-2-oxoethyl)-1-(1-methyl-1H-pyrazol-4-yl)-1H-pyrrolo[3,2-c]pyridin-4(5H)-one] | 40 |
| Cn1cc(-n2cc(-c3ccc(F)c(C(F)(F)F)c3)c3c(=O)n(CC(=O)N4CC(C)(F)C4)ccc32)cn1 [Example 236, 3-(4-fluoro-3-(trifluoromethyl)phenyl)-5-(2-(3-fluoro-3-methylazetidin-1-yl)-2-oxoethyl)-1-(1-methyl-1H-pyrazol-4-yl)-1H-pyrrolo[3,2-c]pyridin-4(5H)-one] | 140 |
| CCC1(F)CN(C(=O)Cn2ccc3c(c(-c4ccc(F)c(Cl)c4)cn3C3CC3)c2=O)C1 [Example 237, 3-(3-chloro-4-fluorophenyl)-1-cyclopropyl-5-(2-(3-ethyl-3-fluoroazetidin-1-yl)-2-oxoethyl)-1H-pyrrolo[3,2-c]pyridin-4(5H)-one] | 79 |
| COCn1cc(-c2ccc(F)c(C(F)(F)F)c2)c2c(=O)n(CC(=O)N3CCC(F)C3)ccc21 (centres unmarked) [Example 238, 3-(4-fluoro-3-(trifluoromethyl)phenyl)-5-(2-(3-fluoropyrrolidin-1-yl)-2-oxoethyl)-1-(methoxymethyl)-1H-pyrrolo[3,2-c]pyridin-4(5H)-one] | 65 |
| CCn1cc(-c2ccc(F)c(C(F)(F)F)c2)c2c(=O)n(CC(=O)N3CCC(F)C3)ccc21 (centres unmarked) [Example 239, 1-ethyl-3-(4-fluoro-3-(trifluoromethyl)phenyl)-5-(2-(3-fluoropyrrolidin-1-yl)-2-oxoethyl)-1H-pyrrolo[3,2-c]pyridin-4(5H)-one] | 86 |
| CN(C)CCn1cc(-c2ccc(F)c(C(F)(F)F)c2)c2c(=O)n(CC(=O)N3CCC(F)C3)ccc21 (centres unmarked) [Example 240] | 29 |
| CCOCn1cc(-c2ccc(F)c(C(F)(F)F)c2)c2c(=O)n(CC(=O)N3CCC(F)C3)ccc21 (centres unmarked) [Example 241, 1-(ethoxymethyl)-3-(4-fluoro-3-(trifluoromethyl)phenyl)-5-(2-(3-fluoropyrrolidin-1-yl)-2-oxoethyl)-1H-pyrrolo[3,2-c]pyridin-4(5H)-one] | 61 |
